Test results from patent US9481677B2, “Biaryl ether sulfonamides and their use as therapeutic agents” (XENON PHARMACEUTICALS INC., priority 2011, dated 2016).
pIC50: −log10 of the molar value.

biological target: Nav1.7 (Homo sapiens (Human), UniProt Q15858); test: Patch voltage clamp electrophysiology, block of inactivated-state Nav1.7 in HEK-293 cells; format: cell-based; details: affinity for the inactivated state; HEK-293 cells with β1 subunit; held at -60 mV; read-out: NaV1.7 (IC50 class)
Method: Patch voltage clamp electrophysiology allows for the direct measurement and quantification of block of voltage-gated sodium channels (Nav's), and allows the determination of the time- and voltage-dependence of block which has been interpreted as differential binding to the resting, open, and inactivated states of the sodium channel (Hille, B., Journal of General Physiology (1977), 69: 497-515).
The following patch voltage clamp electrophysiology studies were performed on representative compounds of the invention using human embryonic kidney cells (HEK), permanently transfected with an expression vector containing the full-length cDNA coding for the desired human sodium channel α-subunit, grown in culture media containing 10% FBS, 1% PSG, and 0.5 mg/mL G418 at 37° C. with 5% CO2. […] Nav1.7 and Nav1.5 cDNAs (NM_002977 and AC137587; SCN5A, respectively) were stably expressed in HEK-293 cells. The β1 subunit was coexpressed only in the Nav1.7 cell line.
Sodium currents were measured using the patch clamp technique in the whole-cell configuration using either a PatchXpress automated voltage clamp or manually using an Axopatch 200B (Axon Instruments) or Model 2400 (A-M systems) amplifier. […] The pipette was filled with a solution comprised of: 5 mM NaCl, 10 mM CsCl, 120 mM CsF, 0.1 mM CaCl2, 2 mM MgCl2, 10 mM HEPES, 10 mM EGTA; and adjusted to pH 7.2 with CsOH. The external solution had the following composition: 140 mM NaCl, 5 mM KCl, 2 mM CaCl2, 1 mM MgCl2, 10 mM HEPES; and adjusted to pH 7.4 with NaOH. In some studies, the external sodium was reduced by equimolar replacement with choline. Osmolarity in the CsF internal and NaCl external solutions was adjusted to 300 mOsm/kg and 310 mOsm/kg with glucose, respectively. All recordings were performed at ambient temperature in a bath chamber with a volume of 150 μL. Control sodium currents were measured in 0.5% DMSO. Controls and representative compounds of the invention were applied to the recording chamber through a 4-pinch or 8-pinch valve bath perfusion system manufactured by ALA Scientific Instruments.
Currents were recorded at 40 kHz sampling frequency, filtered at […], and stored using a Digidata-1322A analogue/digital interface with the pClamp software (Axon Instruments). Series resistance compensation was applied (60-80%). […] All statistics in this study are given as mean±SD.
The membrane potential was maintained at a voltage where inactivation of the channel is complete (which was −60 mV for both Nav1.7 and Nav1.5). The voltage is then stepped back to a very negative (Vhold=−150 mV) voltage for 20 ms and then a test pulse is applied to quantify the compound block. […] The percent decrease in sodium current following wash-on of compound was taken as the percent block of sodium channels.
The Example numbers provided in Table 1 and Table 2 correspond to the Examples herein.

Sequence of Nav1.7 (Q15858 other isoform, or with tags, fused parts or gaps): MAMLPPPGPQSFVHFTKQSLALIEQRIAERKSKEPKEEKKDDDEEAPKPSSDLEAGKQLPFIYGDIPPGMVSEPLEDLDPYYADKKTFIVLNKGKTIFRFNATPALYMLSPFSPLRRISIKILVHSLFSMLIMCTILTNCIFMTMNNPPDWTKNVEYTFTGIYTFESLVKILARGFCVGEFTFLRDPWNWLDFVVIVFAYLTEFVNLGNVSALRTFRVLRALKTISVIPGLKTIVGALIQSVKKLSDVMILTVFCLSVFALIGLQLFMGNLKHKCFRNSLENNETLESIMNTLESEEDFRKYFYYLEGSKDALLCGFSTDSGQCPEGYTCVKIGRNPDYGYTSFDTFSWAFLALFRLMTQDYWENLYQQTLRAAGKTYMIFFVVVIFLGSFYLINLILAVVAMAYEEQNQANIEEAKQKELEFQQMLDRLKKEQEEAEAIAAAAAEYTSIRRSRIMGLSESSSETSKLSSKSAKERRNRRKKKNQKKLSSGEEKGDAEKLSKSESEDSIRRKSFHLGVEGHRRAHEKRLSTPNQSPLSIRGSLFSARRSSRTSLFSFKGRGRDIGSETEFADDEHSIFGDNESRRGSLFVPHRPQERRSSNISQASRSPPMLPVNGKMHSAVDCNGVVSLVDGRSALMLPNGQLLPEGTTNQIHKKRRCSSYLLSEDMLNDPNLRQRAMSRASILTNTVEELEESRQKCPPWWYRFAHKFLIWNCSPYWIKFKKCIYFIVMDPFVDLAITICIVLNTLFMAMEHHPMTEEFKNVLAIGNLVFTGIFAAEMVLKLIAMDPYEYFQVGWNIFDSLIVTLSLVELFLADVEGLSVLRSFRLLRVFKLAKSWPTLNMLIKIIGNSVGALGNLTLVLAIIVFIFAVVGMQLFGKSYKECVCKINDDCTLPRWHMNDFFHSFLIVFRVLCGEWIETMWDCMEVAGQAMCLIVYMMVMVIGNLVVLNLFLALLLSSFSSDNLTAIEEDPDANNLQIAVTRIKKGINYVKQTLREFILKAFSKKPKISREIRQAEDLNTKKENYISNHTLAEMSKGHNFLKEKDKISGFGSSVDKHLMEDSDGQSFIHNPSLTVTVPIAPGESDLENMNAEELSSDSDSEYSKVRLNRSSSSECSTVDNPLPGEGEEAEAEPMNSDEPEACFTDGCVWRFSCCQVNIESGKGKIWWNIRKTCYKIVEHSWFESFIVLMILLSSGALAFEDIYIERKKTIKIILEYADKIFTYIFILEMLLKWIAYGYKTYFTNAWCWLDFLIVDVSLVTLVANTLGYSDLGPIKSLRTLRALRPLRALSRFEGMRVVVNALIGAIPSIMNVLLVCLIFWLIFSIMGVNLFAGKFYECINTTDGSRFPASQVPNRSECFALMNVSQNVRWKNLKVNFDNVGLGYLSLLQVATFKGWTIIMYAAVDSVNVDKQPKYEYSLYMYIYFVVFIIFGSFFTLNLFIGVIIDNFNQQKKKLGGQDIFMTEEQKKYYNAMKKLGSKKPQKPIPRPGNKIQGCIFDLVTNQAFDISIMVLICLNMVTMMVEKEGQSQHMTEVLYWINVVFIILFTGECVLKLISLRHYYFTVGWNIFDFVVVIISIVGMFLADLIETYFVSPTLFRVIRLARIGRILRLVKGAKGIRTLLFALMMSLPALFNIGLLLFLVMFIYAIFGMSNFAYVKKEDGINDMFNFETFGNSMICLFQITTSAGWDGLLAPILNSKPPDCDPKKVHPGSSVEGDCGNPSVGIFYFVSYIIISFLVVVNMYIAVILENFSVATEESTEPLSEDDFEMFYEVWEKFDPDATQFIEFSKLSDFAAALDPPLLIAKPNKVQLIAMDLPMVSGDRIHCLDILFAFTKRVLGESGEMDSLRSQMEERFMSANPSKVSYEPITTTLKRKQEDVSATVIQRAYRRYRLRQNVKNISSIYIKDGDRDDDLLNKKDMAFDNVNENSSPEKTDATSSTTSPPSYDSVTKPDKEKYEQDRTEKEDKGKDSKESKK
Sequence of Nav1.7 (Q07699 19-218 partner): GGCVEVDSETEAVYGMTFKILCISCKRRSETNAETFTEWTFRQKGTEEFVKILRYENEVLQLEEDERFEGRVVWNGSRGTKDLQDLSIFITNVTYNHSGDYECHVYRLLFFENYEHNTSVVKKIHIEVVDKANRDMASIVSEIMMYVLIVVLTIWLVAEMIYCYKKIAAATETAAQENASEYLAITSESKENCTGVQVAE

pIC50	Compound
≥ 7.00	Nc1noc2ccc(-c3cc(F)ccc3Oc3cc(F)c(S(=O)(=O)Nc4ncns4)cc3F)cc12 [Example 80, 4-(2-(3-aminobenzo[d]isoxazol-5-yl)-4-fluorophenoxy)-2,5-difluoro-N-(1,2,4-thiadiazol-5-yl)benzenesulfonamide]
≥ 7.00	O=c1[nH]c2ccc(-c3cc(Cl)ccc3Oc3cc(F)c(S(=O)(=O)Nc4ncns4)cc3F)cc2o1 [Example 53, 4-(4-chloro-2-(2-oxo-2,3-dihydrobenzo[d]oxazol-6-yl)phenoxy)-2,5-difluoro-N-(1,2,4-thiadiazol-5-yl)benzenesulfonamide]
≥ 7.00	O=S(=O)(Nc1ncns1)c1cc(F)c(Oc2ccc(Cl)cc2-c2ccc3[nH]cnc3c2)cc1F [Example 73, 4-(2-(1H-benzo[d]imidazol-5-yl)-4-chlorophenoxy)-2,5-difluoro-N-(1,2,4-thiadiazol-5-yl)benzenesulfonamide]
≥ 7.00	CN(C)c1noc2ccc(-c3cc(Cl)ccc3Oc3cc(F)c(S(=O)(=O)Nc4ncns4)cc3F)cc12 [Example 98, 4-(4-chloro-2-(3-(dimethylamino)benzo[d]isoxazol-5-yl)phenoxy)-2,5-difluoro-N-(1,2,4-thiadiazol-5-yl)benzenesulfonamide]
≥ 7.00	Nc1noc2ccc(-c3ccccc3Oc3cc(F)c(S(=O)(=O)Nc4ncns4)cc3F)cc12 [Example 58, 4-(2-(3-aminobenzo[d]isoxazol-5-yl)phenoxy)-2,5-difluoro-N-(1,2,4-thiadiazol-5-yl)benzenesulfonamide]
≥ 7.00	Nc1nc2ccc(-c3cc(Cl)ccc3Oc3cc(F)c(S(=O)(=O)Nc4ncns4)cc3F)cc2o1 [Example 57, 4-(2-(2-aminobenzo[d]oxazol-6-yl)-4-chlorophenoxy)-2,5-difluoro-N-(1,2,4-thiadiazol-5-yl)benzenesulfonamide]
≥ 7.00	Nc1noc2ccc(-c3cc(Cl)ccc3Oc3cc(F)c(S(=O)(=O)Nc4cscn4)cc3F)cc12 [Example 49, 4-(2-(3-aminobenzo[d]isoxazol-5-yl)-4-chlorophenoxy)-2,5-difluoro-N-(thiazol-4-yl)benzenesulfonamide]
≥ 7.00	O=S(=O)(Nc1ncns1)c1cc(F)c(Oc2ccc(Cl)cc2-c2ccc3[nH]c(C(F)(F)F)nc3c2)cc1F [Example 54, 4-(4-chloro-2-(2-(trifluoromethyl)-1H-benzo[d]imidazol-5-yl)phenoxy)-2,5-difluoro-N-(1,2,4-thiadiazol-5-yl)benzenesulfonamide]
≥ 7.00	O=c1[nH]c2cc(-c3cc(Cl)ccc3Oc3ccc(S(=O)(=O)Nc4ncccn4)cc3F)ccc2o1 [Example 79, 4-(4-chloro-2-(2-oxo-2,3-dihydrobenzo[d]oxazol-5-yl)phenoxy)-3-fluoro-N-(pyrimidin-2-yl)benzenesulfonamide]
≥ 7.00	O=S(=O)(Nc1ncns1)c1cc(F)c(Oc2ccc(Cl)cc2-c2ccc3ocnc3c2)cc1F [Example 51, 4-(2-(benzo[d]oxazol-5-yl)-4-chlorophenoxy)-2,5-difluoro-N-(1,2,4-thiadiazol-5-yl)benzenesulfonamide]
≥ 7.00	Cc1ccc(Oc2cc(F)c(S(=O)(=O)Nc3ncns3)cc2F)c(-c2ccc3oc(=O)[nH]c3c2)c1 [Example 82, 2,5-difluoro-4-(4-methyl-2-(2-oxo-2,3-dihydrobenzo[d]oxazol-5-yl)phenoxy)-N-(1,2,4-thiadiazol-5-yl)benzenesulfonamide]
≥ 7.00	Nc1noc2ccc(-c3cc(Cl)ccc3Oc3cc(F)c(S(=O)(=O)Nc4ncns4)cc3F)cc12 [Example 44, 4-(2-(3-aminobenzo[d]isoxazol-5-yl)-4-chlorophenoxy)-2,5-difluoro-N-(1,2,4-thiadiazol-5-yl)benzenesulfonamide]
≥ 7.00	Nc1noc2ccc(-c3cc(Cl)ccc3Oc3cc(F)c(S(=O)(=O)Nc4ncccn4)cc3F)cc12 [Example 63, 4-(2-(3-aminobenzo[d]isoxazol-5-yl)-4-chlorophenoxy)-2,5-difluoro-N-(pyrimidin-2-yl)benzenesulfonamide]
≥ 7.00	O=c1[nH]c2cc(-c3cc(Cl)ccc3Oc3cc(F)c(S(=O)(=O)Nc4ncns4)cc3F)ccc2o1 [Example 52, 4-(4-chloro-2-(2-oxo-2,3-dihydrobenzo[d]oxazol-5-yl)phenoxy)-2,5-difluoro-N-(1,2,4-thiadiazol-5-yl)benzenesulfonamide]
≥ 7.00	Nc1nc2cc(-c3cc(Cl)ccc3Oc3cc(F)c(S(=O)(=O)Nc4ncns4)cc3F)ccc2[nH]1 [Example 38, 4-(2-(2-amino-1H-benzo[d]imidazol-5-yl)-4-chlorophenoxy)-2,5-difluoro-N-(1,2,4-thiadiazol-5-yl)benzenesulfonamide]
5.00 to 6.00	O=S(=O)(Nc1ncns1)c1cc(F)c(Oc2ccc(Cl)cc2-c2ncc3cnccn23)cc1F [Example 36, 4-(4-chloro-2-(imidazo[1,5-a]pyrazin-3-yl)phenoxy)-2,5-difluoro-N-(1,2,4-thiadiazol-5-yl)benzenesulfonamide]
≥ 7.00	O=S(=O)(Nc1ncns1)c1cc(F)c(Oc2ccc(Cl)cc2-c2cccc3nccn23)cc1F [Example 30, 4-(4-chloro-2-(imidazo[1,2-a]pyridin-5-yl)phenoxy)-2,5-difluoro-N-(1,2,4-thiadiazol-5-yl)benzenesulfonamide]
≥ 7.00	O=S(=O)(Nc1ncns1)c1cc(F)c(Oc2ccc(Cl)cc2-c2ccnc3nccn23)cc1F [Example 31, 4-(4-chloro-2-(imidazo[1,2-a]pyrimidin-5-yl)phenoxy)-2,5-difluoro-N-(1,2,4-thiadiazol-5-yl)benzenesulfonamide]
≥ 7.00	Nc1noc2ccc(-c3cc(Cl)ccc3Oc3cc(F)c(S(=O)(=O)Nc4ncns4)c(F)c3)cc12 [Example 64, 4-(2-(3-aminobenzo[d]isoxazol-5-yl)-4-chlorophenoxy)-2,6-difluoro-N-(1,2,4-thiadiazol-5-yl)benzenesulfonamide]
≥ 7.00	NC(=O)c1cnc2ccc(-c3cc(Cl)ccc3Oc3cc(F)c(S(=O)(=O)Nc4ncns4)cc3F)cn12 [Example 46, 6-(2-(4-(N-(1,2,4-thiadiazol-5-yl)sulfamoyl)-2,5-difluorophenoxy)-5-chlorophenyl)imidazo[1,2-a]pyridine-3-carboxamide]
≥ 7.00	Nc1cnc2ccc(-c3cc(Cl)ccc3Oc3cc(F)c(S(=O)(=O)Nc4ncns4)cc3F)cn12 [Example 42, 4-(2-(3-aminoimidazo[1,2-a]pyridin-6-yl)-4-chlorophenoxy)-2,5-difluoro-N-(1,2,4-thiadiazol-5-yl)benzenesulfonamide]
≥ 7.00	O=S(=O)(Nc1ncns1)c1cc(F)c(Oc2ccc(Cl)cc2-c2ccc3nccnc3c2)cc1F [Example 59, 4-(4-chloro-2-(quinoxalin-6-yl)phenoxy)-2,5-difluoro-N-(1,2,4-thiadiazol-5-yl)benzenesulfonamide]
5.00 to 6.00	O=S(=O)(Nc1ncns1)c1cc(F)c(Oc2ccc(Cl)cc2-n2cnc3cncnc32)cc1F [Example 40, 4-(4-chloro-2-(9H-purin-9-yl)phenoxy)-2,5-difluoro-N-(1,2,4-thiadiazol-5-yl)-benzenesulfonamide]

Compound	pIC50
O=S(=O)(Nc1ncns1)c1cc(F)c(Oc2ccc(Cl)cc2-c2cnc3n2CCNC3)cc1F [Example 32, 4-(4-chloro-2-(5,6,7,8-tetrahydroimidazo[1,2-a]pyrazin-3-yl)phenoxy)-2,5-difluoro-N-(1,2,4-thiadiazol-5-yl)benzenesulfonamide]	6.00 to 7.00
Nc1n[nH]c2ccc(-c3cc(Cl)ccc3Oc3cc(F)c(S(=O)(=O)Nc4ncns4)cc3F)cc12 [Example 45, 4-(2-(3-amino-1H-indazol-5-yl)-4-chlorophenoxy)-2,5-difluoro-N-(1,2,4-thiadiazol-5-yl)benzenesulfonamide]	≥ 7.00
CNc1noc2ccc(-c3cc(Cl)ccc3Oc3cc(F)c(S(=O)(=O)Nc4ncns4)cc3F)cc12 [Example 69, 4-(4-chloro-2-(3-(methylamino)benzo[d]isoxazol-5-yl)phenoxy)-2,5-difluoro-N-(1,2,4-thiadiazol-5-yl)benzenesulfonamide]	≥ 7.00
Nc1noc2ccc(-c3cc(Cl)ccc3Oc3ccc(S(=O)(=O)Nc4ncns4)c(F)c3F)cc12 [Example 65, 4-(2-(3-aminobenzo[d]isoxazol-5-yl)-4-chlorophenoxy)-2,3-difluoro-N-(1,2,4-thiadiazol-5-yl)benzenesulfonamide]	≥ 7.00
